The values below come from paper PMC10692717, “Peptides designed from a bacteriophage capsid protein function as synthetic transcription repressors” (The Journal of Biological Chemistry, 2023).

For series [1], the target named is peptide 33 (bacteriophage P4 (designed variant)) (UniProt P05460). Briefly: EMSA. The settings on record: EMSA/competition: 10 mM Tris-HCl pH 8.0, 250 mM NaCl, 37 C, 10 min, 10 nM labeled nucleic acid, fluorescence: 10 mM Tris-Cl pH 8, 500 mM NaCl, 20-37 C. On the technique in general: In EMSA bound probe runs differently from free probe, usually more slowly.
The next series has as its system bacterial cells. The settings on record: cited from earlier work.
The next series relates to E. coli. The conditions noted are these: also cause cell death; ref [29]; cited from earlier work. An excerpt:
(§1) AMPs are prevalent in all forms of life. They are part of the natural defense mechanism of the organism. […] Another such small peptide that has the potential to be useful against drug-resistant bac ...

The subject of the next series is bacteria. The conditions noted are these: acts by blocking the synthesis of macromolecules; ref [28]; cited from earlier work.
Description: as §1

The target in series [2] is peptide 33 (bacteriophage P4 (designed variant)) (UniProt P05460). Briefly: competition. The settings on record: EMSA/competition: 10 mM Tris-HCl pH 8.0, 250 mM NaCl, 37 C, 10 min, 10 nM labeled nucleic acid, fluorescence: 10 mM Tris-Cl pH 8, 500 mM NaCl, 20-37 C, scale: fold excess over 292 bp dsDNA for 50% release.
A further series has as its system dsDNA. The conditions noted are these: ref [30], [31], [32]; cited from earlier work.
Description: as §1

Like-named read-outs stand apart in the source and are kept apart here. Where no end group is shown, it is not given here.

The term Kd denotes a measure of binding affinity in units of concentration. As to 160 bp dsDNA, the dissociation constant Kd in series [1] came out at 4000 nM. The same measure, in the same setting: the same measure for 283 nt gfc RNA: 1000 nM; for 292 bp dsDNA: 2750 nM; for 499 bp dsDNA: 4700 nM.

In the case of `NCC[C@H](O)C(=O)N[C@@H]1C[C@H](N)[C@@H](O[C@H]2O[C@H](CN)[C@@H](O)[C@H](O)[C@H]2O)[C@H](O)[C@H]1O[C@H]1O[C@H](CO)[C@@H](O)[C@H](N)[C@H]1O` [amikacin], the elongated cell phenotype entry in the series on bacterial cells (ref [21]) is recorded as “elongated cells phenotypes”.

Turning to `O=C(N[C@H](CO)[C@H](O)c1ccc([N+](=O)[O-])cc1)C(Cl)Cl` [chloramphenicol], in the series on bacterial cells (ref [21], [22]), the elongated cell phenotype result is “elongated cells phenotypes”.

For the compound `O=C(O)c1cn(C2CC2)c2cc(N3CCNCC3)c(F)cc2c1=O` [ciprofloxacin], the elongated cell phenotype result with bacterial cells (ref [19]) is “elongated cells phenotypes”. With `NC[C@H]1O[C@H](O[C@H]2[C@H](O)[C@@H](O[C@H]3O[C@H](CO)[C@@H](O)[C@H](N)[C@H]3O)[C@H](N)C[C@@H]2N)[C@H](O)[C@@H](O)[C@@H]1O` [kanamycin], in the series on bacterial cells (ref [20]), the elongated cell phenotype result is given as “elongated cells phenotypes”. “ATCTTCTCTCATCCGCCAAAACAGCC [26-mer ssDNA (RS1816)]” showed a Kd in series [1] of 2000 nM. As to “HNP-1: human neutrophils-derived peptide defensin”, the “inhibition of DNA, RNA, and protein synthesis” value (shortened to “inhibition of DNA, RNA”) in the series with E. coli was “inhibit the synthesis of DNA, RNA, and proteins”.

In the case of “HNP-2: human neutrophils-derived peptide defensin (CYCRIPACIAGERRYGTCIYQGRLWAFCC; ends and bridges not checked; cysteine pairing not given here; UniProt P59665 66-94, looked up)”, the “inhibition of DNA, RNA” value in the series with E. coli is “inhibit the synthesis of DNA, RNA, and proteins”. Regarding “HNP-3: human neutrophils-derived peptide defensin”, in the series with E. coli, the “inhibition of DNA, RNA” value was “inhibit the synthesis of DNA, RNA, and proteins”. Turning to Pleurocidin, the antibacterial activity entry in the series on bacteria is “broad-spectrum antibacterial activity”. The compound “TGATCCTCCTCCTCCTGATCCTCCTCCTCCTGATCCTCCTCCTCCTGAGCGTTTCATCATTTCGAAGAAATCGTC [75-mer ssDNA (RS2230)]” had a binding signal in series [2] of 9.5. Further, the Kd in series [1] was 740 nM. With gentamycin, the elongated cell phenotype result in the series on bacterial cells (ref [23]) is listed as “elongated cells phenotypes”. Take “indolicidin: 13-mer peptide with tryptophan-rich sequences of the cathelicidin family of host defense peptides (ILPWKWPWWPWRR; ends and bridges not checked; UniProt P33046 131-143, looked up)”: the “binding to dsDNA” value in the series with dsDNA is reported as “binds to dsDNA”. lambda tR1 RNA (284 nt): the binding signal in series [2] stood at 2.8.
